In one assay the test system is 231 and 159 cells. Nature of the assay: FACS of breast TIC-enriched CD24-CD44+ or ALDH+ population. It is filed as cell-based, human. The protocol:
(§1) To examine the effects of ATO and ATRA on TICs in TNBC, 231 and 159 cells were treated with ATO (1 μM), ATRA (10 μM) or their combination, followed by assaying the breast TIC-enriched CD24-CD44+ or ALDH+ population using fluorescence-activated cell sorting (FACS). […] To examine the effects of ATO and ATRA on self-renewal of breast TICs, different TNBC cells were treated with ATO, ATRA or their combination, followed by a serial mammosphere formation assay.

Assay [1] concerns Human triple negative breast cancer MBA-MB-231 cells. In words: Mouse orthotopic implantation model with MBA-MB-231 cells. The class given is in vivo. Particulars: nude mice, ATO 2 mg/kg every other day, ATRA 5 mg 21 day pellets, 6 weeks. The text has this:
FIG. 17A is a graph showing that combination treatment with ATRA and ATO results in greater tumor growth inhibition than treatment with either ATRA or ATO, alone. FIG. 17B is image of the excised tumors corresponding to FIG. 17A. FIG. 17C is a graph depicting tumor volume corresponding to the tumors pictured in FIG. 17B.
Human triple negative breast cancer MBA-MB-231 cells were orthotopically implanted into nude mice. A week after tumor growth was notable, mice were randomly grouped and treated with either ATO (2 mg/kg every other day), ATRA (5 mg 21 day slow releasing pellets), or a combination of both ATO (2 mg/kg every other day) and ATRA (5 mg 21 day slow releasing pellets). Tumor growth was measured weekly for 6 weeks.

The test system of the next assay is Hs578t and SUM159 cells. Nature of the assay: FACS quantification of ALDH+ cells. It is filed as cell-based, human. The text has this:
FIG. 11 is a series of plots generated by fluorescence-activated cell sorting (FACS) and a corresponding graph that depicts the quantification of aldehyde dehydrogenase-positive (ALDH+) cells following treatment with ATRA, ATO, or a combination of ATRA and ATO. ALDH is tumor marker associated with breast cancer stem cells. The fraction of ALDH+ cells is decreased in Hs578T cells treated with ATRA+ATO, as compared to those treated with either ATRA or ATO, alone.
FIG. 12 is a series of plots generated by fluorescence-activated cell sorting (FACS) and a corresponding graph that depicts the quantification of aldehyde dehydrogenase-positive (ALDH+) cells following treatment with ATRA, ATO, or a combination of ATRA and ATO. ALDH is tumor marker associated with breast cancer stem cells. The fraction of ALDH+ cells is decreased in SUM159 cells treated with ATRA+ATO, as compared to those treated with either ATRA or ATO, alone.
Two different human triple negative breast cancer cell lines (Hs578t and SUM159) were treated with ATRA, ATO, or a combination of ATRA and ATO. Fluorescence-activated cell sorting (FACS) was used to quantify the proportion of aldehyde dehydrogenase-positive (ALDH+) cells following treatment. […]

Another assay concerns the target T1, Pin1 (Homo sapiens, UniProt Q13526).
T1 construct: followed by assaying Pin1 levels using immunoblotting; endogenous in cells; host or cells: SUM159, Hs578T, MDA-MB-231 (printed MBA-MB-231)
In words: Pin1 protein levels in triple negative breast cancer cell lines by immunoblotting. The class given is cell-based. Particulars: SUM159, Hs578T and MBA-MB-231 cells. From the text: FIG. 5 is a series of western blots and corresponding graphs of quantified protein expression depicting arsenic trioxide-induce Pin1 degradation in triple-negative breast cancer cell lines (SUM159, Hs578T, and MBA-MB-231).
FIG. 7 is a series of western blots and corresponding graphs of quantified protein expression levels showing that, in triple-negative breast cancer cell lines (SUM159 and Hs578T), arsenic trioxide-induced Pin1 degradation is blocked by the proteasome inhibitor, MG132.
FIG. 8 is a series of western blots and corresponding graphs of quantified protein expression levels showing that all-trans retinoic acid (ATRA) induces Pin1 degradation in triple-negative breast cancer cell lines (SUM159, Hs578T, and MBA-MB-231).
FIG. 9 is a series of western blots and corresponding graphs of quantified protein expression levels depicting decrease in Pin1 protein expression in triple-negative breast cancer cells (SUM159, Hs578T, and MBA-MB-231) following combination treatment with ATO and ATRA, as compared to treatment with either ATO or ATRA, alone. […]
Two different human triple negative breast cancer cell lines (SUM159 and Hs578T) were treated with different concentrations of ATO in the presence of the proteasome inhibitor MG132 or vehicle control DMSO. […] cells were collected and lysed and levels of Pin1 protein expression were quantified by immunoblotting. […]
A general note: In western blotting, separated proteins are transferred to a membrane and probed.

In assay [2] the test system is TNBC 231 and 159 cells (breast TICs). Nature of the assay: Serial mammosphere formation assay. It is filed as cell-based, human. Particulars: serial propagation M1-M4. The protocol:
FIG. 22C is a graph showing that ATO and ATRA co-treatment dramatically reduces tumor growth.
as §1
Breast TICs are notoriously resistant to cytotoxic chemotherapy drugs such as taxol, which is commonly used to treat TNBC. While taxol treatment kills non-TIC cancer cells, it is ineffective against TICs, leading to TIC-enriched taxol-resistant cells. […] Thus, the combination of ATO and ATRA inhibits the growth of taxol-resistant TNBCs. This raised the question of whether the combination of ATO and ATRA could inhibit tumor initiation and growth of breast TICs in vivo. Accordingly, the effects of ATO and ATRA combination therapy on tumor initiation of TNBCs were assayed using a limiting dilution assay in mice, a standard approach to determine tumor initiation.

Assay [3] has as its system triple negative breast cancer PDX. Nature of the assay: Triple negative breast cancer patient derived xenograft (PDX) mouse model. The class given is in vivo. From the text:
FIGS. 18A-D show the effect of ATO and ATRA on a triple negative breast cancer patient-derived xenograft (PDX) mouse model, where treatment was initiated two weeks after implantation. FIG. 18A is a graph showing that combination treatment with ATRA and ATO results in greater tumor growth inhibition than treatment with either ATRA or ATO, alone. FIG. 18B is image of the excised tumors corresponding to FIG. 18A. FIG. 18C is a graph depicting tumor volume corresponding to the tumors picture in FIG. 18B.
FIGS. 19A-C show the effect of ATO and ATRA on a triple negative breast cancer PDX mouse model, where treatment was initiated when the tumor volume reached to 250 mm^3. FIG. 19A is a graph showing that combination treatment with ATRA and ATO results in greater tumor growth inhibition than treatment with either ATRA or ATO, alone. FIG. 19B is image of the excised tumors corresponding to FIG. 19A. FIG. 19C is a graph depicting tumor volume corresponding to the tumors picture in FIG. 19B.
FIGS. 20A-D show the effect of ATO and ATRA on a triple negative breast cancer PDX mouse model, where treatment was initiated when the tumor volume reached to 300 mm^3. FIG. 20A is a graph showing that combination treatment with ATRA and ATO results in greater tumor growth inhibition than treatment with either ATRA or ATO, alone. FIG. 20B is image of the excised tumors corresponding to FIG. 20A. FIG. 20C is a graph depicting tumor volume corresponding to the tumors picture in FIG. 20B. FIG. 20D is a western blot depicting a decrease in Pin1 expression following treatment with either ATO, ATRA, or a combination of ATO and ATRA.
A PDX mouse model of triple negative breast cancer was treated with either ATO (2 mg/kg every other day), ATRA (5 mg 21 day slow releasing pellets), or a combination of both ATO (2 mg/kg every other day) and ATRA (5 mg 21 day slow releasing pellets). Treatment was initiated two weeks after implantation. Tumor growth was measured weekly for 7 weeks.
Furthermore, a PDX mouse model of triple negative breast cancer was treated with either ATO (2 mg/kg every other day), ATRA (5 mg 21 day slow releasing pellets), or a combination of both ATO (2 mg/kg every other day) and ATRA (5 mg 21 day slow releasing pellets). Treatment was initiated when the tumor volume reached 250 mm^3. Tumor growth was measured weekly for 6 weeks.
Finally, a PDX mouse model of triple negative breast cancer was treated with either ATO (2 mg/kg every other day), ATRA (5 mg 21 day slow releasing pellets), or a combination of both ATO (2 mg/kg every other day) and ATRA (5 mg 21 day slow releasing pellets). Treatment was initiated when the tumor volume reached 300 mm^3. Tumor growth was measured weekly for 6 weeks. […]
A general note: A xenograft is tissue or cells of one species grown in another, often human tumour cells in immunodeficient mice.

Assay [4] relates to MDA-MB-231 breast cancer cell line. In words: Intracellular arsenic levels by ICP-Masspec. It is filed as cell-based, human. Particulars: MDA-MB-231 cells treated with ATRA, relative to control. The method, then: FIGS. 16A-C are a series of graphs showing that ATRA increases intracellular arsenic concentration measured by ICP-Masspec.
Intracellular arsenic levels were measured by ICP-Masspec in breast cancer cells lines treated with either ATRA, shRNA knockdown of AQP9, or overexpression of AQP9.

T1 sequence (Q13526 whole entry): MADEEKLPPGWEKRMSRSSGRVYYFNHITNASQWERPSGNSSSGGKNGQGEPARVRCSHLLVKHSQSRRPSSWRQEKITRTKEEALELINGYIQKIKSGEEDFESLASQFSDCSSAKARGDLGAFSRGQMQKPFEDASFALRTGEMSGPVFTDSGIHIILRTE

Turning to `CC1=C(/C=C/C(C)=C/C=C/C(C)=C/C(=O)O)C(C)(C)CCC1` [ATRA, all-trans retinoic acid], in the assay on 231 and 159 cells, the “Breast TIC-enriched CD24-CD44+ or ALDH+ population” value is “significantly reduced breast TIC-enriched population”. In addition, the Tumor growth entry is recorded as “inhibited tumor growth” in assay [1]; “inhibited tumor growth” in assay [3] (treatment initiated two weeks after implantation, 7 weeks); “inhibited tumor growth” in assay [3] (treatment initiated when tumor volume reached 250 mm^3, 6 weeks); “inhibited tumor growth” in assay [3] (treatment initiated when tumor volume reached 300 mm^3, 6 weeks). Moreover, the “Proportion of ALDH+ cells” value in the assay with Hs578t and SUM159 cells is given as “decreased the proportion of ALDH+ cells”. Moreover, the “Pin1 levels (degradation)” value on Pin1 was “induced Pin1 degradation in a dose-dependent manner”. For the same molecule, the Mammosphere formation efficiency result in assay [2] is given as “strongly impaired mammosphere formation efficiency at M2-3”. The “Pin1 levels in tumors” value in assay [3] (treatment initiated at 300 mm^3) is on record as “decreased”. Moreover, the Intracellular arsenic concentration entry in assay [4] was “increase intracellular arsenic concentrations relative to control”.
